# Results reported in US20100099714A1, “AMPA and NMDA Receptor Antagonists for Neurodegenerative Diseases” (Eisai R&D Management Co., Ltd., priority 2007, published 2010).
# Columns and labels:
# [1] = Pharmacokinetic study of memantine, plasma concentration after single dose; type: in vivo, human; conditions: corresponds to 20-25 ng/ml at 20 mg single dose
# Protocol: The efficacy of memantine in a variety of dementias has been shown in clinical trials. Memantine is considered to be a promising neuroprotective drug for the treatment of dementias, particularly Alzheimer's disease (Jain K K, Evaluation of memantine for neuroprotection in dementia. Expert Opin Investig Drugs 2000; 9(6): 1397-406.). Clinical dosage of mamentine is 20 mg/day. Maximal plasma concentration of memantine at 20 mg was at around 20-25 ng/ml after single dose treatment (Periclou A, et al., Pharmacokinetic study of memantine in healthy and renally impaired subjects. Clin Pharmacol Ther 2006; 79: 134-43.). This plasma concentration roughly correspond to 0.1 μM.
# [2] = 40 mg/day compared to 20 mg/day; cited from earlier work
# [3] = 20 mg, single dose treatment; cited from earlier work
# Alzheimer's disease = Alzheimer's disease trials; cited from earlier work
# Cortical cell cultures = assay: NMDA and kainate-induced toxicity, MTT assay of cell viability; type: cell-based, rat; conditions: for protection of neuron from excitotoxicity induced by combination treatment with kainate and NMDA: 100 μM NMDA and 100 μM kainate for 24 h, monotherapy, FIG. 1A, B
# Protocol: Cortical cell cultures were prepared from fetal rats of the Wistar strain (gestational age of 17 to 19 days, Charles River Japan, Kanagawa, Japan). The cortex was dissected and kept in Neurobasal medium (Invitrogen Corp., Carlsbad, Calif., USA) containing 2% B27 supplement (Invitrogen), 25 μM 2-mercaptoethanol (Wako), 0.5 mM L-glutamine (Invitrogen) and ×1/100 volume of antibiotic-antimycotic (Invitrogen), then incubated at 37° C. for 30 min in Ca^2+/Mg^2+ free Hank's balanced salt solution (MSS; 10 mM HEPES, pH 7.3) containing 0.25% trypsin (Invitrogen) and 0.2 mg/ml deoxyribonuclease (DNase) (Sigma). The cortical tissues were dissociated to single cells by gentle trituration. The cell suspension was centrifuged at 310×g for 3 min and the resulting pellets were resuspended in the medium described above.
# The cells were plated at an initial cell density of 5×10^5 cells/cm^2 in poly-L-lysine (Sigma)-coated 96-well plates. The cells were cultured in a CO2 incubator (5% (v/v), at 37° C. in the Neurobasal medium described above for 7 days, and cultured following 4 days in culture medium without antioxidant B27 supplement and 2-mercaptoethanol. The cultures were exposed to 100 μM of N-methyl-D-aspartate (NMDA)(Sigma) and 100 μM of kainate (Sigma) for 24 h at 37° C. The cells were treated with perampanel (0.03, 0.3, 3 or 30 μM) and memantine HCl (0.1, 1, 10 or 100 μM) for 24 h before and during the exposure to these agonists. In the combination experiment, perampanel at […] or memantine at 10 μM or its combination was used.
# Viability of cells grown in 96-well plates was measured by 3-[4,5-dimethylthylthiazol-2-yl]-2,5-diphenyltetrazolium bromide (MTT) assay. The 10 μl of 8 mg/ml MTT (Sigma) solution in D-PBS(−) (Dulbecco's phosphate-buffered saline, Sigma) was added to each well. During 10 min incubation at 37° C., the active dehydrogenase in viable mitochondria reduces the tetrazolium ring of MTT, forming a blue-colored precipitate. The cells were lysed and the precipitate was dissolved in […] of MTT solubilizing buffer containing 20% sodium dodecyl sulfate (SDS: Wako) in 50% N,N-dimethyl formamide at pH 4.7, and quantified spectrophotometrically at 550-690 nm.
# Wells without cells, containing only the medium and MTT solution, were measured to obtain the background value, which was subtracted from measured values at 550-690 nm, as follows: % of Recovery=(sample−NMDA/Kainate treated control)/(non-treated control−NMDA/Kainate treated control)×100.
# The data were analyzed with one-way analysis of variance (ANOVA) followed by Dunnett's multiple comparison test using the software package SAS ver. 8.2 (SAS Institute Japan Ltd., Tokyo, Japan).
# [4] = clinically relevant concentration, roughly 0.1 μM
SMILES,plasma concentration converted to molar [1] [nM],risk of adverse event [2],Maximal plasma concentration [3] [ng/mL],clinical effect (Alzheimer's disease),protection of neuron from excitotoxicity induced by combination treatment with kainate and NMDA (Cortical cell cultures),effect size at clinically relevant concentration (Cortical cell cultures; [4]),neuroprotective effect at clinically relevant concentration (Cortical cell cultures; [4]),shape of the neuroprotective effect over concentration (Cortical cell cultures; 100 μM NMDA and 100 μM kainate)
"C[C@]12CC3C[C@](C)(C1)C[C@@](N)(C3)C2 [memantine, 1-amino-3,5-dimethyl-adamantane]",~100,higher risk of adverse event,20 to 25,modest,protected neuron from excitotoxicity,small and far below maximal effect,significant neuroprotective effect,–
"N#Cc1ccccc1-c1cc(-c2ccccn2)cn(-c2ccccc2)c1=O [perampanel, 2-(2-oxo-1-phenyl-5-pyridin-2-yl-1,2-dihydropyridin-3-yl)benzonitrile]",–,–,–,–,protected neuron from excitotoxicity,–,–,ceiling on the effect from lowest concentration showing neuroprotection
